Source: publication PMC11073428, “The activity of pyrazolo[4,3-e][1,2,4]triazine and pyrazolo[4,3-e]tetrazolo[1,5-b][1,2,4]triazine sulphonamide derivatives in monolayer and spheroid breast cancer cell cultures” (Journal of Enzyme Inhibition and Medicinal Chemistry, 2024)

Tests used:
[1] = system: MCF-7 breast cancer cells; assay: Autophagy Assay, Red, flow cytometry, MCF-7; type: cell-based, human
Method: The effect of novel compound 3b at 0.25 µM and 0.5 µM concentration on the induction of autophagy in MCF-7 and MDA-MB-231 pre-treated 1 h with or not autophagy inhibitor 3-MA for 1 h (3-methyladenine, Sigma-Aldrich, St. Louis, MO) at 1 mM concentration[29] was assessed by ICT’s Autophagy Assay, Red using a flow cytometer. The test was performed as previously. Briefly, cells were washed with PBS and suspended in 490 µL of PBS. To each probe, 10 µL of diluted Autophagy Probe, Red solution was added. Prepared samples were incubated at 37 °C for 60 min. Following incubation, cells were suspended in diluted cellular assay buffer and centrifuged. Then, supernatant was removed, and cells were resuspended in diluted cellular assay buffer and centrifuged again. This step was repeated three times. Finally, cell pellet was resuspended in 0.5 mL of diluted cellular assay buffer. The analysis was performed with a flow cytometer (excitation/emission 590 nm/620 nm).

[2] = system: caspase 10 in MDA-MB-231 cells; assay: Activity of caspase 10, MDA-MB-231; type: cell-based, human; conditions: 24 h
Method: (§1) MCF-7 and MDA-MB-231 cells were plated in six-well plates at density 1 × 10^6 and cultured in DMEM for 24 h. […] Then to identify the involvement of caspase family in inducing apoptosis, cells were pre-treated with Z-VAD-FMK (100 µM) 2 h before adding compounds[28]. The activation of caspases 9, 10, and 3/7 was detected as described before.

Bax in MCF-7 cells = assay: Anti-Bax antibody flow cytometry, MCF-7; type: cell-based, human; conditions: 24 h
Method: To evaluate the molecular mechanism of induction of apoptosis of tested compounds, the level of p53, NF-κB, mTOR, Bax, and beclin-1 was measured using appropriate antibody according to the manufacturer’s instruction. In brief, tryspinised cells were centrifuged, then supernatant was discarded, and cells were suspended in 4% FA (formaldehyde). Prepared samples were incubated 15 min at RT. Following incubation, the 2.5 mL PBS was added to each sample and centrifuged. Then, supernatant was discarded, and cells were resuspended in 90% ice-cold methanol to perform permeabilisation and left for 1 h in ice. To remove methanol, cells were rinsed with excess PBS by centrifugation. Following centrifugation, the supernatant was discarded. Then, cells were resuspended in 100 µL of appropriate diluted (1:100 in PBS) antibody conjugate (p53 (7F5) Rabbit mAb – Alexa Fluor 488 Conjugate #5429 Cell Signalling Technology, Danvers, MA; NF-κB p65 (D14E12) XP Rabbit mAb – Alexa Fluor 647 Conjugate #8801 Cell Signalling Technology, Danvers, MA; mTOR (7C10) Rabbit mAB – Alexa Fluor 647 #5048 Cell Signalling Technology, Danvers, MA; FITC Anti-Bax antibody (T22-A) #ab139543, Abcam, Cambridge, UK) and incubated 1 h in the dark at RT. Afterwards, cells were washed by centrifugation in 2 mL of incubation buffer. Finally, supernatant was removed and 300 µL PBS was added to each sample and pipetted. The analysis was performed by flow cytometry (BD FACSCanto II, Becton Dickinson Biosciences Systems, San Jose, CA) using FACSDiva software ver. 6.1.3.

[3] = system: caspase 3/7 in MDA-MB-231 cells; assay: Activity of caspase 3/7, MDA-MB-231; type: cell-based, human; conditions: 24 h
Method: as §1

[4] = system: MCF-7 breast cancer cells; assay: MTT viability assay, MCF-7
Method: Following 24-h incubation with tested compounds, the medium was discarded from the cell cultures. Then, into each well with cells was added 1 mL of PBS and 50 µL of MTT solution (5 mg per mL). Cells were incubated at 37 °C and 5% CO2 in humidified atmosphere for a defined time appropriate for each cell line. After incubation, the solution above the cells was removed and obtained purple formazan crystals were dissolved in 1 mL DMSO. The absorbance was read at OD = 570 nm on Evolution 201 Spectrophotometer (Thermo Scientific, Waltham, MA).

## Cc1nn(-c2ccc(S(=O)(=O)N[C@@H](CO)Cc3ccccc3)cc2)c2nn3nnnc3nc12 [Compound 3b, (R)-N-(1-hydroxy-3-phenylpropan-2-yl)-4-(7-methyl-5H-pyrazolo[4,3-e]tetrazolo[1,5-b][1,2,4]triazin-6-yl)benzenesulfonamide]
[1]; MCF-7, 0.5 µM, 24 h
  autophagic cells: 30 ± 2.1%
[1]; MCF-7, 3b 0.5 µM + 3MA vs 3b 0.5 µM
  autophagic cells with 3-MA relative to 3b alone (in words): one and a half times less autophagic cells
[2]; MDA-MB-231, 0.25 µM
  cells with active caspase 10: 21.2 ± 1.4%
[2]; MDA-MB-231, 0.5 µM
  cells with active caspase 10: 50.8 ± 3.8%
Bax in MCF-7 cells; MCF-7, 0.25 µM
  cells with active Bax: 46.4 ± 6.6%
Bax in MCF-7 cells; MCF-7, higher concentration (0.5 µM)
  cells with active Bax: 63.0 ± 1.6%
[3]; MDA-MB-231, 0.25 µM
  cells with active executive caspases (3 and 7): 23.8 ± 0.8%
[3]; MDA-MB-231, 0.5 µM
  cells with active executive caspases (3 and 7): 68.4 ± 1.2%
[4]; Homo sapiens, MCF7, 24 h, read-out: Cytotoxicity IC50 MCF-7
  IC50: 250 ± 70 nM
[4]; ratio of cytotoxicity, 3a vs 2a, 3b vs 2b
  times stronger than the corresponding sulphonyl derivative (2a or 2b), MCF-7: 22 times
